For the assay, the system named is B16-F10. Description: Transplantable B16-F10 melanoma mouse model: tumor growth and survival under CD39 inhibitor and checkpoint antibodies.

Excerpt: A schematic summary of the therapy regimen used in the transplantable B16-F10 mouse model (described in Methods). Mice were divided into four groups (n=10 per group): untreated (vehicle control), anti-TIM3, CD39 inhibitor (CD39i, using POM-1 small molecule) and anti-TIM3 in combination with CD39i. FIG. 26D. Box plots showing the kinetics of tumor growth between the different groups of mice on days +4, +7, +11, +14 and +18 post tumor transplantation. Data in box plots are means±SEM. P-value was determined by unpaired-student's t-test. FIG. 26E. Mean tumor volumes for all 4 groups are shown, means±SEM. FIG. 26F. Survival at day 30 of B16-F10 tumor-bearing mice for all 4 groups. Log-rank P-value is shown. Data shown for C-F represents one out of two independent experiments, n=10 for each group per experiment. ns—not significant.
To that end Applicants used the aggressive B16-F10 melanoma mouse model. Mice were treated with the small molecule POM-1 to block CD39 activity^38, alone or in combination with anti-TIM3 blocking antibodies (FIG. 26C).
Mice and tumor transplant. […] B16-F10 cells (0.5×10^6) were intradermally injected into the right flank using a 30 g needle and tumors were measured every 4 days in two dimensions using a digital caliper. Tumor volume (mm^3) was calculated using the following formula V=(L*W^2)/2 (V=volume, L=tumor length, tumor width). […]

In the case of `O.[Na+].[Na+].[Na+].[Na+].[Na+].[Na+].[O]=[W](=[O])([O-])[O-].[O]=[W](=[O])([O-])[O-].[O]=[W](=[O])([O-])[O-].[O]=[W](=[O])=[O].[O]=[W](=[O])=[O].[O]=[W](=[O])=[O].[O]=[W](=[O])=[O].[O]=[W](=[O])=[O].[O]=[W](=[O])=[O].[O]=[W](=[O])=[O].[O]=[W](=[O])=[O].[O]=[W](=[O])=[O]` [POM-1, polyoxometalate-1], the “tumor growth / tumor size” value (B16-F10 intradermal tumors, CD39 inhibitor and/or anti-TIM3, versus untreated) was “transiently reduced tumor growth until day 14”. For the same compound, the “survival on day 30” value (B16-F10 tumor-bearing mice, n=10 per group, POM-1 5 mg/kg/day i.p., anti-TIM3 100 μg/dose i.p. every 3 days, from day 4) amounted to 10%.

Values taken from US12226479B2, “Methods and compositions of use of CD8+ tumor infiltrating lymphocyte subtypes and gene signatures thereof” (THE GENERAL HOSPITAL CORPORATION, priority 2017, dated 2025).
